Where two headings read alike, the source gives them in different places.
Key:
[1] = system: P. falciparum male gametocytes; assay: P. falciparum Dual Gamete Formation Assay (PfDGFA), male readout (exflagellation); type: cell-based, Plasmodium falciparum NF54; details: for inhibition at 2 µM: 24h preincubation with gametocytes
In short: (§1)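 First, day-14 P. falciparum NF54 gametocytes receive compound for 24 h at 37°C in 1% O2/3% CO2. Next, ookinete medium with Cy3 anti-Pfs25 triggers gametogenesis at 28°C and male exflagellation is imaged. Finally, after 24 h in the dark, Cy3-labelled females are imaged.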

[2] = system: P. falciparum female gametocytes; assay: P. falciparum Dual Gamete Formation Assay (PfDGFA), female readout (Pfs25-positive female gametes); type: cell-based, Plasmodium falciparum NF54; details: for inhibition at 2 µM: 24h preincubation with gametocytes
In short: as §1

[3] = system: P. falciparum male gametocytes; assay: PhIDDLI timecourse assay, compound added at timepoints after triggering male gametogenesis; type: cell-based, Plasmodium falciparum NF54
Method: To gain greater understanding of their activity, selected molecules displaying different inhibition phenotypes in the initial screen were re-tested. Rather than subjecting gametocytes to a 24h preincubation prior to inducing gametogenesis, compounds were added at varying timepoints after triggering male gametogenesis. Samples were then fixed 20 min post-induction, imaged and analysed similarly using the PhIDDLI pipeline.
Alternatively, if compound action over time was to be assessed, 1.5ml tubes with appropriate dilutions of test compounds were prepared for each timepoint. Gametogenesis was then triggered in the mature gametocyte culture with ookinete medium and temperature decrease from 37°C. At appropriate times, 200 μl of triggered culture was sampled and mixed with test compound. All samples were then allowed to continue gametogenesis and fixed as described previously with paraformaldehyde after 20 min (when a DMSO-treated sample could be expected to be exflagellating).
100 μl of the fixed cell suspensions were added to wells of a 24 well plate containing 1ml PBS and a poly-l-lysine-coated glass coverslip. Cells were allowed to settle and adhere to the coverslip overnight at 4°C before coverslips were transferred to a hydrophobic membrane (Parafilm) for immunofluorescence staining in a humidified, dark box. Cells were permeabilised with 0.1% Triton-X100 in PBS for 10 min before washing in PBS three times. Non-specific binding was blocked by incubating coverslips with PBS + 10% fetal bovine serum (FBS) (blocking buffer) for 1 h. Gametocytes and microgametes were visualised by labelling with an anti-alpha tubulin antibody (raised from chicken embryo brain tubulin but cross-reacts with many other species) (clone DM1A (Sigma)) 1:500 dilution in blocking buffer for 1 h, washed as before, and then stained with an anti-mouse Alexa488 secondary antibody (Thermo-Fisher) 1:1,000 dilution in blocking buffer for a further 1 h. After a final series of washes, the coverslips were mounted on glass slides with VectaShield mountant (Vector Laboratories) containing 4′,6-diamidino-2-phenylindole (DAPI) to visualise cellular DNA.
All slides were imaged using a Nikon Ti fluorescence microscope using an x100 oil objective and 1.5x zoom. For each sample, tubulin-postive, DAPI-positive stained gametocytes/gametes were imaged at random. Z-stack images with 0.3μm slices were captured for each field of view and images deconvolved and transformed by maximum intensity projection within the Nikon NIS Elements software. Within raw images, cells were initially identified by an automated analysis pipeline developed in ICY Bioimage Analysis based upon the intensity of the tubulin staining captured which assigns a region of interest (ROI) around each cell. All ROIs were reviewed by a trained operator and adjusted if necessary to reflect the true outline of the cell (for example if two cells touching had been allocated the same ROI). Raw images contained between 1 and 8 extractable cells.
Code for the PhIDDLI pipeline was written in Python 3.8 and executed by command line within a 64-bit Ubuntu virtual machine running within Oracle VM VirtualBox 6.1. […] Principle component analysis of compound phenotypes (Fig 5) was performed using ClustViz (https://biit.cs.ut.ee/clustvis/) using ln(x+1) transformation, and k-means clustering of the resultant PCA data was coded in R and executed in R Studio version 1.1.456 to identify optimum cluster using the elbow method.

HepG2 cells [4] = assay: HepG2 cytotoxicity counter-screen; details: for Mean TOX: mean of the HepG2 TOX50 values; for DGFA Tox50 HepG2: HepG2 value reported with the DGFA screen
[5] = system: P. falciparum gametocytes; assay: P. falciparum Gametocyte Viability ATP Assay (PfGCT); type: cell-based, Plasmodium falciparum; details: Mean TOX HepG2 over GC-ATP IC50; GREEN = >10-fold; RED = <10-fold
Description: (§2) Fig 1 The activity of TCAMS compound identified in the Pf DGFA screen. (A) 85 molecules were confirmed active in the Pf DGFA. 58 were previously identified in one or more transmission-blocking screens. […] No molecule was identified with >4.7-fold greater activity against female gametocytes. Abbreviations (IC50 = concentration giving 50% inhibition, PbODA = P. berghei Ookinete Development Assay, PfDGFA = P. falciparum Dual Gamete Formation Assay, PfFGAA = P. falciparum Female Gametocyte Activation Assay, PfGCT = P. falciparum Gametocyte Viability ATP Assay).

[6] = system: P. falciparum gametocytes; design: method as in Almela et al 2015; details: ref Almela et al 2015; read-out: Pf Gametocyte viability (ATP) GC-ATP IC50; cited from earlier work
HepG2 cells [7] = details: cited from earlier work
[8] = system: P. falciparum female gametocytes; assay: P. falciparum Female Gametocyte Activation Assay (PfFGAA); type: cell-based, Plasmodium falciparum; details: Mean TOX HepG2 over FGAA IC50; GREEN = >10-fold; RED = <10-fold
Description: as §2

[9] = system: P. falciparum female gametocytes; design: method as in Miguel-Blanco et al 2017; details: ref Miguel-Blanco et al 2017; read-out: Pf female gametogenesis FGAA IC50; cited from earlier work
[10] = this study, read-out: Pf DGFA IC50 MALE
[11] = compound added concurrent with triggering male gametogenesis or 2 min later
[12] = compound added later than 2 min post-induction (up to 10 min)
[13] = this study, read-out: Pf DGFA IC50 FEM

| Compound | Cytotox ratio Pf Male [1] | IC50 [1, 10] [nM] | Cytotox ratio Pf Female [2] | Mean TOX (HepG2 cells [4]) [µM] | Cytotox ratio Pf GC-ATP [5] | IC50 [6] [nM] | GC-ATP TOX50 HepG2 (HepG2 cells [7]) [µM] | IC50 [2, 13] [nM] | other results |
| --- | --- | --- | --- | --- | --- | --- | --- | --- | --- |
| COCCN(C)CCCOc1cc2c(cc1OC)ncn2-c1cc(OCc2ccccc2C(F)(F)F)c(C(N)=O)s1.Cl [TC14] | 22.0 | 620 | 1.4 | 13.65 | – | – | – | – | impact on proportion of cells with replicated DNA ([3]; all timepoints of addition): minimal impact; effect on exflagellation [3, 11]: substantially reduced; effect on exflagellation [3, 12]: not inhibitory |
| CNC(=O)c1cnc(Nc2ccc(N3CCN(C)CC3)cc2)nc1Nc1ccccc1OC.O=C(O)C(F)(F)F [TC16] | 29.7 | 1200 | 3.6 | 35.63 | – | – | – | – | cells showing apparent DNA replication ([3]; compound added concurrent with induction, fixed 20 min post-induction, DMSO control 61.4%): 21.7%; effect on exflagellation [3, 11]: substantially reduced; amounts of cells showing evidence of DNA replication ([3]; compound added during the first 2 min of male gametogenesis): markedly reduced; effect on exflagellation [3, 12]: not inhibitory |
| Br.c1cc(C2=NC3CCCCC3N2)ccc1OCCCOc1ccc(C2=NC3CCCCC3N2)cc1 (centres unmarked) [TC17] | 27.3 | 1130 | 3.1 | 30.89 | 65.7 | 470 | 25 | – | – |
| COCCCNC(=S)NN=C(C)c1ccccn1 [TC19] | 20.8 | 420 | 21.8 | 8.74 | 54.6 | 160 | 17 | 400 | DGFA Tox50 HepG2 (HepG2 cells [4]): 0.48 µM |
| Br.c1cc(Nc2nc(-c3ccc(-c4csc(Nc5ccncc5)n4)cc3)cs2)ccn1 [TC35] | 26.8 | 300 | 26.8 | 8.03 | 30.9 | 260 | 17.3 | 300 | Cytotox ratio Pf FGAA [8]: 267.7; IC50 [9]: 30 nM; FGAA TOX50 HepG2 (HepG2 cells [7]): 2.26 µM |
| C=CCN(C(=O)c1ccc(Cl)c([N+](=O)[O-])c1)c1nc(-c2ccccc2)cs1 [TC38] | 127.1 | 400 | 164.1 | 50.86 | 462.3 | 110 | 25 | 310 | Cytotox ratio Pf FGAA [8]: 391.2; IC50 [9]: 130 nM; FGAA TOX50 HepG2 (HepG2 cells [7]): 100 µM |
| Nc1cc(C=Cc2ccc([N+](=O)[O-])o2)nc2ccccc12 [TC58] | 44.7 | 160 | 17.9 | 7.15 | 35.7 | 200 | 11.7 | 400 | – |
| Cc1cccc2nc(-c3ccc(-c4cccc(CNCCN5CCNCC5)c4)cc3)[nH]c12.O=C(O)C(F)(F)F [TC67] | 10.1 | 1870 | 2.1 | 18.84 | 22.4 | 840 | 13.4 | 9110 | – |
| CN(C)CCCn1c(N)c(-c2nc3ccccc3[nH]2)c2nc(C#N)c(C#N)nc21 [TC72] | 14.8 | 510 | 5.1 | 7.53 | 37.7 | 200 | 6.93 | 1470 | – |
| CCC1CN2CCc3cc(OC)c(OC)cc3C2CC1CC1NCCc2cc(OC)c(OC)cc21.Cl (centres unmarked) [TC73] | – | 3530 | – | 17.84 | – | 120 | 17.68 | 750 | IC50 [9]: 1820 nM; FGAA TOX50 HepG2 (HepG2 cells [7]): 2.24 µM; ODA TOX50 HepG2 (HepG2 cells [7]): 23.9883 µM |
| Cc1cc(Nc2ccncc2)n2nc(C)c(-c3ccc(Cl)cc3)c2n1 [TC79] | 60.8 | 950 | 5.8 | 57.77 | 63.5 | 910 | 50 | – | – |
| Nc1cc(C=Cc2ccc([N+](=O)[O-])s2)nc2ccccc12 [TC80] | 14.2 | 330 | 4.5 | 4.68 | 7.8 | 600 | 7.6 | 1030 | – |
| O=C(C1CC1)N1c2ccccc2CCc2ccccc21 [TCMDC-123880] | – | – | – | 100.00 | – | – | – | – | Selectivity Ratio M ([1]; HepG2 Tox50 versus male IC50): 180.08; Cytotox ratio Pf Male ([1]; Mean TOX HepG2 over DGFA IC50 MALE, GREEN = >10-fold, RED = <10-fold): 178.6; inhibition at 2 µM ([1]; Plasmodium falciparum, average of replicates, read-out: Average inhibition male (%)): 95.8%; inhibition at 2 µM ([1]; Plasmodium falciparum, replicate R1, read-out: % inhibition male (individual replicates) R1): 98.9%; inhibition at 2 µM ([1]; Plasmodium falciparum, replicate R2, read-out: % inhibition male (individual replicates) R2): 92.4%; inhibition at 2 µM ([1]; Plasmodium falciparum, replicate R3, read-out: % inhibition male (individual replicates) R3): 99.8%; inhibition at 2 µM ([1]; Plasmodium falciparum, replicate R4, read-out: % inhibition male (individual replicates) R4): 92.2%; IC50 ([1]; Plasmodium falciparum, PfDGFA, 24 h incubation with gametocytes before induction, exflagellation readout, read-out: Male IC50): 560 nM; Selectivity ratio F ([2]; HepG2 Tox50 versus female IC50): 10; Cytotox ratio Pf Female ([2]; Mean TOX HepG2 over DGFA IC50 FEM, GREEN = >10-fold, RED = <10-fold): 10.0; inhibition at 2 µM ([2]; Plasmodium falciparum, average of replicates, read-out: Average inhibition female (%)): 7.7%; inhibition at 2 µM ([2]; Plasmodium falciparum, replicate R1, read-out: % inhibition female (individual replicates) R1): 12.4%; inhibition at 2 µM ([2]; Plasmodium falciparum, replicate R2, read-out: % inhibition female (individual replicates) R2): -4.3%; inhibition at 2 µM ([2]; Plasmodium falciparum, replicate R3, read-out: % inhibition female (individual replicates) R3): 22.7%; inhibition at 2 µM ([2]; Plasmodium falciparum, replicate R4, read-out: % inhibition female (individual replicates) R4): 0.07%; IC50 ([2]; Plasmodium falciparum, PfDGFA, 24 h incubation with gametocytes before induction, female gamete readout, read-out: Female IC50): > 10000 nM; effect on exflagellation ([3]; compound added between 0 and 5 min post induction): strongly inhibited exflagellation; DGFA Tox50 HepG2 (HepG2 cells [4]): 100 µM |

Reference: article PMC10584170, “Machine learning-based phenotypic imaging to characterise the targetable biology of Plasmodium falciparum male gametocytes for the development of transmission-blocking antimalarials” (PLOS Pathogens, 2023)
